Assay results as given in patent US20060070135A1, “Compositions and methods for inhibiting the enzymatic activity of PTP-1B” (priority 1998, published 2006).

Tests used:
[1] = system: phosphorylation level of the insulin receptor in CHO-IR cells (endogenous PTP-1B); assay: Intact cell assay: insulin receptor phosphorylation level in CHO-IR cells treated with PTP-1B inhibitors and stimulated with insulin; assay type: cell-based, Chinese hamster; settings: 5 nM insulin; for Intact cell assay: fold-increase over control / fold induction at 50 µM: at 50 μM
Experimental: The phosphorylation level of the insulin receptor (IR) was determined in CHO-IR cells (Chinese hamster ovarian cells expressing endogenous PTP-1B and overexpressing human insulin receptor; ATCC, Manassas, Va.) treated with PTP-1B inhibitors and stimulated with 5 nM insulin. CHO-IR cells were grown in F12 media, 10% fetal bovine serum (FBS), and 1% penstrep. All experiments were conducted within the first 12 passages after thawing cells.
On the first day of the experiment, CHO-IR cells were placed in 6-well plates (1/10 of 100 mm confluent plate). Once cells were confluent (˜24 hours later), the cells were starved overnight in 0% fetal bovine serum F12 medium. After the overnight incubation, the medium was changed to fresh 0% F12 30 minutes prior to the addition of inhibitor. A 1 mL aliquote of media containing inhibitor (10, 25 or 50 μM), with a final concentration of 0.1% DMSO, was added to each well. The inhibitors were added directly to the serum-free media, shortly before using them (i.e., the inhibitor was added to cells within 10 minutes of dilution). Cells were incubated with inhibitors for 2-4 hours. A 250 μL aliquote of insulin (human insulin, HUMULIN™ was subsequently added to each well at a final concentration of 5 nM. The cells were incubated for an additional 10 minutes and washed 2× with cold phosphate-buffered saline (PBS). Proteins were isolated with modified RIPA buffer (200 μL/well) containing protease inhibitor (COMPLETE™), NaF, and Na3VO4.
Protein quantification was conducted using Bradford reagent (BIO-RAD, Hercules, Calif.). Proteins were separated in an 8% SDS-PAGE gel with 25-40 μg protein per well. The proteins were subsequently transferred to PDVF membrane for western blot analysis. Membranes were blocked for 1 hour in either 1% bovine serum albumin for the 4G10 antibody or 5% milk for other antibodies. Membranes were incubated overnight at 4° C. with 4G10 or phospho-antibody, washed 4×5 minutes to remove the primary antibody, incubated 1 hour with secondary antibody, washed an additional 4×5 minutes, and visualized using an ECL detection kit.
Membranes were subsequently stripped, blocked for 1 hour and probed with anti-P-IR, anti-IR, anti-p-AKT, and anti-AKT primary antibodies. Primary antibodies were anti-IR pY1162pY1163 (human) polyclonal antibody and anti-1-IR polyclonal antibody. The blots were washed 4×5 minutes to remove primary antibody, incubated 1 hour in anti-rabbit HRP secondary antibody, washed an additional 4×5 minutes and visualized using ECL.
Bands visualized on the blots were quantified using NIH Image 1.62. Quantification was conducted for at least three experiments.

[2] = molecular target: Insulin receptor (mouse, endogenous; β-subunit immunoprecipitated from tissue membrane fractions) (mouse) (UniProt P15208); assay: cell-based or functional assay
[3] = Cricetulus griseus, read-out: Intact cell assay: fold-increase over control

UniProt P15208, sequence (P15208 753-1372 limits assumed): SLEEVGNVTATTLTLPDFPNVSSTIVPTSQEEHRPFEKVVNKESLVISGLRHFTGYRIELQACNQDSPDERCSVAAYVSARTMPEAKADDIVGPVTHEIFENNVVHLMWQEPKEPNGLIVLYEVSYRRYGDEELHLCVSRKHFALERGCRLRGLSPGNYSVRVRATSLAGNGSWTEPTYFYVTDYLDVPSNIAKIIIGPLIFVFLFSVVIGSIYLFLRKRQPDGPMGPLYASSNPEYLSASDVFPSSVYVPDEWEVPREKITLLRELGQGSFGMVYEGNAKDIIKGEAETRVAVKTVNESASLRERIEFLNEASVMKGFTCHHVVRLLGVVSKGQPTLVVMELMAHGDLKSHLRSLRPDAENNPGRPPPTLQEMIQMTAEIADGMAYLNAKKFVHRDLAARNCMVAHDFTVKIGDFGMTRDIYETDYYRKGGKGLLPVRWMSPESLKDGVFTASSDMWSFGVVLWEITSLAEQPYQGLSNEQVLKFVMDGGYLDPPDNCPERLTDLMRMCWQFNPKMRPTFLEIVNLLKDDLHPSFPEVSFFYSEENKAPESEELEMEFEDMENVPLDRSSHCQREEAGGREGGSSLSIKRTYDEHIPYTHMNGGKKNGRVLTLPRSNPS

| Compound | Intact cell assay: fold-increase over control [1] | also measured |
| --- | --- | --- |
| Nc1c(S(=O)(=O)O)cc(S(=O)(=O)O)c2cccc(O)c12 [compound 11, 4-amino-5-hydroxynaphthalene-1,3-disulfonic acid] | Inactive at 50 μM |  |
| N#CC(C#N)=C1CSc2sc(=S)sc2SC1 [compound 13, 2-(2-thioxo-[1,3]dithiolo[4,5-b][1,4]dithiepin-6-ylidene)malononitrile] | Inactive at 50 μM |  |
| CCc1nnc(NS(=O)(=O)c2ccc(NC(=S)NC(=O)/C=C/c3ccc(C(C)C)cc3)cc2)s1 [compound 14, N-(5-ethyl-[1,3,4]thiadiazol-2-yl)-4-{3-[3-(4-isopropylphenyl)-acryloyl]-thioureido}-benzenesulfonamide] | Inactive at 50 μM |  |
| COc1ccc(-c2csc(N3N=C(c4ccc([N+](=O)[O-])cc4)C(=NNc4ccc(S(N)(=O)=O)cc4)C3=O)n2)cc1 [compound 15, 4-{N′-[1-[4-(4-methoxyphenyl)-thiazol-2-yl]-3-(4-nitrophenyl)-5-oxo-1,5-dihydropyrazol-4-ylidene]-hydrazino}-benzenesulfonamide] | Inactive at 50 μM |  |
| O=C(/C=C/c1ccco1)Nc1ccc(C(=O)O)cc1NC(=O)/C=C/c1ccco1 [compound 16, 3,4-bis-(3-furan-2-ylacryloylamino)-benzoic acid] | Inactive at 50 μM |  |
| O=C(O)c1ccc(N2C(=O)/C(=C/c3ccc(-c4ccc([N+](=O)[O-])cc4)o3)C=C2c2ccccc2)cc1 [compound 17, 4-{3-[5-(4-nitrophenyl)-furan-2-ylmethylene]-2-oxo-5-phenyl-2,3-dihydropyrrol-1-yl}-benzoic acid] | Inactive at 50 μM |  |
| Nc1nnnn1/N=C/c1cc(I)cc(I)c1O [compound 19, 2-[(5-aminotetrazol-1-ylimino)-methyl]-4,6-diiodophenol] | Inactive at 50 μM |  |
| O=[N+]([O-])c1ccc(O)c(/C=N/N=c2/[nH]c3nonc3nc2Nc2ccc(I)cc2)c1 [compound 20, 2-{[6-(4-iodophenylamino)-4H-[1,2,5]oxadiazolo[3,4-b]pyrazin-5-ylidene]-hydrazonomethyl}-4-nitrophenol] | Inactive at 50 μM |  |
| O=C1C=CC(=O)c2c(O)cccc21 [compound 21, 5-hydroxy-[1,4]-naphthoquinone] |  | fold induction at 50 µM [1, 3]: 0.87 |
| COc1cc(/C=C2/SC(=S)N(c3cccc(Cl)c3)C2=O)cc([N+](=O)[O-])c1O [compound 22, 3-(3-chlorophenyl)-5-(4-hydroxy-3-methoxy-5-nitrobenzylidene)-2-thioxothiazolidin-4-one] |  | fold induction at 25 µM ([1]; Cricetulus griseus, at 25 μM, read-out: Intact cell assay: fold-increase over control): 2.7; fold induction at 50 µM [1, 3]: 4.1 |
| Protein tyrosine phosphatase-1B (mouse, endogenous) (from UniProt P35821 1-432) |  | insulin receptor tyrosine phosphorylation in liver of wild-type mice, 5 minutes against 1 minute after insulin injection [2]: 50% |
| Protein tyrosine phosphatase-1B (mouse, endogenous) (from UniProt P35821 1-432) (enzyme) |  | insulin receptor phosphorylation level in muscle after insulin challenge, PTP-1B (+/-) against wild-type mice on high fat, high carbohydrate diet [2]: 2 fold; insulin receptor phosphorylation level in muscle after insulin challenge, PTP-1B (-/-) against wild-type mice on high fat, high carbohydrate diet [2]: 4 fold; phosphotyrosine level of the insulin receptor in muscle of insulin treated PTP-1B null mice compared to wild-type (immunoprecipitation, anti-phosphotyrosine immunoblot, densitometry) [2]: 40% |
